Measurements: ChEMBL document CHEMBL1795314, “Mycobacterium tuberculosis and cholinesterase inhibitors from Voacanga globosa” (Eur J Med Chem, 2011)
pIC50: −log10 of the molar value. ≈ marks a conversion by molar mass, not a printed value.

Legend:
[1] = tested on: Mycobacterium tuberculosis; test: Antitubercular activity against replicating Mycobacterium tuberculosis H37Rv ATCC 27294 at 100 ug/ml after 1 week by microplate alamar blue assay; assay type: functional; settings: H37Rv ATCC 27294, 168 h
Acetylcholinesterase = Acetylcholinesterase (Electrophorus electricus, UniProt O42275); test: Inhibition of electric eel AChE by colorimetric Ellman's assay
Sequence of Acetylcholinesterase (O42275 whole entry): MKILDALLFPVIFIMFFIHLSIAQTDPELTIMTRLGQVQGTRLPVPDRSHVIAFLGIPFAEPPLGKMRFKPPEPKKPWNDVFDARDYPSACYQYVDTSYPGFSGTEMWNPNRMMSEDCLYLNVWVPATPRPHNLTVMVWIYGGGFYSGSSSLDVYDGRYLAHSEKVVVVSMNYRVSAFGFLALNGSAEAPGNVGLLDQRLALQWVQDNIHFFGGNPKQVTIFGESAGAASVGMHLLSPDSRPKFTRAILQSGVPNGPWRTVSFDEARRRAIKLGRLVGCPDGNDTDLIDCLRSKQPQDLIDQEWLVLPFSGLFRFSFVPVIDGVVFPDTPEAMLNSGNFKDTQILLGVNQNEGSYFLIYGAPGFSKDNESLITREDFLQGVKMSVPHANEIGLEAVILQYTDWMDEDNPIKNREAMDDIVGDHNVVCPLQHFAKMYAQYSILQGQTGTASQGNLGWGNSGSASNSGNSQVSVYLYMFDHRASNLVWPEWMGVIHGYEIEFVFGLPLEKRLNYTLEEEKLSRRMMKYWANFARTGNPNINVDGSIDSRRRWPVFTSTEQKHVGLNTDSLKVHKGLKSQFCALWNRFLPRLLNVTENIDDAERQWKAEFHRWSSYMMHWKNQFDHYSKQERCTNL

Cholinesterase = Cholinesterase (Equus caballus, UniProt P81908); test: Inhibition of equine serum BChE by colorimetric Ellman's assay; settings: for pIC50: read-out: IC50; for IC50: read-out: pIC50 (converted)
Sequence of Cholinesterase (P81908 whole entry): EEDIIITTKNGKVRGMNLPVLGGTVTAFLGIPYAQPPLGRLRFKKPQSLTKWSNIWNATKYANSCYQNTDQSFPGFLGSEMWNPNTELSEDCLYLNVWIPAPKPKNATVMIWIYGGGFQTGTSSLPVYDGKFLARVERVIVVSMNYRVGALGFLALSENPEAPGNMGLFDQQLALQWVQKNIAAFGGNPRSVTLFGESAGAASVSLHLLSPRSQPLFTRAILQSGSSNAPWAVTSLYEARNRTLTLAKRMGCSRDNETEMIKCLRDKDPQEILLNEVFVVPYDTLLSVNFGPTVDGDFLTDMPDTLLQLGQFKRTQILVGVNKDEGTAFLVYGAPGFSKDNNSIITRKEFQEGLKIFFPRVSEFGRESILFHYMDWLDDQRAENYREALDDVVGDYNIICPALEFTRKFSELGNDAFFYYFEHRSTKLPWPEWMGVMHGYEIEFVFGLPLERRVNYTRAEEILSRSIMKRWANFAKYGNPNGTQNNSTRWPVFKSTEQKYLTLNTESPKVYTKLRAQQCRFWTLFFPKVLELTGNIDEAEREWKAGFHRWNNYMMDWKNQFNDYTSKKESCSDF

[2] = tested on: Mycobacterium tuberculosis; test: Antitubercular activity against replicating Mycobacterium tuberculosis H37Rv ATCC 27294 after 1 week by microplate alamar blue assay; assay type: functional; settings: H37Rv ATCC 27294, 168 h
[3] = tested on: Mycobacterium tuberculosis; test: Antitubercular activity against replicating Mycobacterium tuberculosis H37Rv ATCC 27294 at 50 ug/ml after 1 week by microplate alamar blue assay; assay type: functional; settings: H37Rv ATCC 27294, 168 h
[4] = tested on: Mycobacterium tuberculosis; test: Antitubercular activity against non-replicating Mycobacterium tuberculosis H37Rv ATCC 27294 incubated 10 days under anaerobic condition measured after 28 hrs of recovery in air by luciferase based low oxygen recovery assay; assay type: functional
[5] = tested on: Mycobacterium tuberculosis; test: Antitubercular activity against replicating Mycobacterium tuberculosis H37Rv ATCC 27294 at 20 ug/ml after 1 week by microplate alamar blue assay; assay type: functional; settings: H37Rv ATCC 27294, 168 h

Compound | inhibition at 100 µg/mL [1] [%] | pIC50 (Acetylcholinesterase) | pIC50 (Cholinesterase) | MIC [2] [µg/mL] | inhibition at 50 µg/mL [3] [%] | IC50 (Cholinesterase) [µM] | MIC [4] [µg/mL] | inhibition at 20 µg/mL [5] [%]
COC(=O)C1=C2Nc3ccccc3[C@@]23CCN2C[C@]4(C[C@@H]5C[C@]67CC(=O)O[C@H]6CCN6CC[C@@]8(c9cccc(OC)c9N(C4)[C@@H]58)[C@@H]67)[C@@H]4OCC[C@]4(C1)[C@H]23 [DEOXYVOBSTUSINE LACTONE] | 35 | 4.04 | 4.69 | > 100 |  |  |  | 
COC(=O)C1=C2Nc3ccccc3[C@@]23CCN2C[C@]4(C[C@@H]5C[C@]67CCO[C@H]6CCN6CC[C@@]8(c9cccc(OC)c9N(C4)[C@@H]58)[C@@H]67)[C@@H]4OCC[C@]4(C1)[C@H]23 [DEOXYVOBTUSINE] |  | 4.06 | 5.21 | > 50 | 13 | 7.73 |  | 
COC(=O)C1=C2Nc3ccccc3[C@@]23CCN2[C@H](O)[C@]4(C[C@@H]5C[C@]67CC(=O)O[C@H]6CCN6CC[C@@]8(c9cccc(OC)c9N(C4)[C@@H]58)[C@@H]67)[C@@H]4OCC[C@]4(C1)[C@H]23 [GLOBOSPIRAMINE] |  | 4.03 | 4.79 | 4 (≈ 5.46 µM) |  | 16.3 | 5.2 (≈ 7.1 µM) | 
NNC(=O)c1ccncc1 [ISONIAZID] |  |  |  | 0.68 (≈ 4.96 µM) |  |  | > 128 | 
C=C(C)[C@@H]1CC[C@]2(C)CC[C@]3(C)[C@H](CC[C@@H]4[C@@]5(C)CC[C@H](O)C(C)(C)[C@@H]5CC[C@]43C)[C@@H]12 [LUPEOL] |  |  |  | > 20 |  |  |  | 0
COc1c(N2C[C@@H]3CCCN[C@@H]3C2)c(F)cc2c(=O)c(C(=O)O)cn(C3CC3)c12 [MOXIFLOXACIN] |  |  |  | 0.83 (≈ 2.07 µM) |  |  | 33.2 (≈ 82.7 µM) | 
CO[C@H]1/C=C/O[C@@]2(C)Oc3c(C)c(O)c4c(O)c(c(/C=N/N5CCN(C)CC5)c(O)c4c3C2=O)NC(=O)/C(C)=C\C=C\[C@H](C)[C@H](O)[C@@H](C)[C@@H](O)[C@@H](C)[C@H](OC(C)=O)[C@@H]1C [RIFAMPIN] |  |  |  | 0.15 (≈ 0.182 µM) |  |  | 0.84 (≈ 1.02 µM) | 
COC(=O)C1=C2Nc3ccccc3[C@@]23CCN2C[C@]4(C[C@@H]5C[C@]67CC(=O)C[C@H]6CCN6CC[C@@]8(c9cccc(OC)c9N(C4)[C@@]58O)[C@@H]67)[C@@H]4OCC[C@]4(C1)[C@H]23 [VOBTUSINE LACTONE] |  | 4.05 | 4.74 | > 50 | 13 |  |  | 
